Values of other authors in US20240199754A1 (VANCOUVER BIOTECH LTD., priority 2021, published 2024).
Square brackets hold non-standard residues; d marks the D form. Peptide text beside a SMILES is read from it. dPhe(4-Cl) = N[C@H](Cc1ccc(Cl)cc1)C(=O)O; d2Nal = N[C@H](Cc1ccc2ccccc2c1)C(=O)O; dCit = NC(=O)NCCC[C@@H](N)C(=O)O; d3Pal = N[C@H](Cc1cccnc1)C(=O)O

Conditions: cited from earlier work

CC(=O)N[C@H](Cc1ccc2ccccc2c1)C(=O)N[C@H](Cc1ccc(Cl)cc1)C(=O)N[C@H](Cc1cccnc1)C(=O)N[C@@H](CO)C(=O)N[C@@H](Cc1ccc(O)cc1)C(=O)N[C@H](CCCNC(N)=O)C(=O)N[C@@H](CC(C)C)C(=O)N[C@@H](CCCNC(=N)N)C(=O)N1CCC[C@H]1C(=O)N[C@H](C)C(N)=O [Cetrorelix, reference compound] (Ac-[d2Nal][dPhe(4-Cl)][d3Pal]SY[dCit]LRP[dA]-NH2)
circulation half life: 10 to 63 h
